From publication PMC12171880, “Selectivity and Safety Characterization of a Xanthine–Imidazothiazole Lead Structure: a Novel Tryptophan Hydroxylase Inhibitor of Peripheral Serotonin Synthesis” (ACS Pharmacology & Translational Science, 2025)

Experiments:
Type in all cases: in vivo, rat
Sprague–Dawley rats [1] = assay: Dose-range finding study in rats, clinical chemistry; settings: for ALT (GPT) / Albumin / Albumin/ globulin ratio / Alkaline phosphatase / Bile acids / Bilirubin total / Calcium / Chloride / Cholesterol / Creatine kinase / Creatinine / GLDH / Globulin / Glucose / Inorganic phosphate / Potassium / Sodium / Total protein / Triglycerides / Urea (BUN): day 8
Method: (§1) TPT-004 was formulated in 0.5% (w/v) CMC-Na in water and administered by oral gavage (PO) twice daily (b.i.d.) with a 12 h interval to the treatment groups (3 male and 3 female Sprague–Dawley rats each) for 8 days (15 successive applications). Rats were dosed with 10, 45, and 200 mg/kg, i.e., daily doses of 20, 90, and 400 mg/kg. In addition, a control group was dosed at the same frequency as the vehicle (0.5% CMC-Na).
(§2) A blood sample of 100 μL was obtained from each rat by puncturing one of the lateral tail veins under short isoflurane anesthesia. Blood was collected in tubes containing lithium heparin and gently mixed. After centrifugation (10 min at 3000g, 4 °C), plasma was separated and stored at −20 °C until LC-MS analysis. In addition, on day 8, the rats were exsanguinated by cardiac puncture under isoflurane anesthesia. A volume of 100 μL of blood (K3-EDTA) was used for immediate cell blood count, while the rest of the blood was mixed with lithium heparin and centrifuged to generate plasma for clinical chemistry analysis.

Sprague–Dawley rats [2] = assay: Dose-range finding study in rats, hematology; parameters: red cell distribution width (RDW): unit not given here; settings: for ERY / HCT / HGB / LEU / LYM / LYM (%) / MCH / MCHC / MCV / MON / MON (%) / MPV / NEU / NEU (%) / PCT / PDWc / PDWs / PLT / RDWc / RDWs: day 8
Method: as §1, §2

Sprague–Dawley rats [3] = assay: Dose-range finding study in rats, histopathology
Method: Blood samples were collected as described below. The animal sacrifice (exsanguination) was performed on day 8. During the necropsy, the selected organs were collected, weighed, and shipped to a third-party laboratory for histopathological examination (as described below).
The histological evaluation was performed by AnaPath Services GmbH (Liestal, Switzerland). The samples from the organs–liver, kidney, lung, heart, brain, femur, and ovary–were fixed in 4% neutral-buffered formaldehyde. The testes were fixed by using the Davidson solution. All tissues were trimmed, processed, and embedded in paraffin wax. Samples from the femur were processed and embedded in paraffin after decalcification. Blocks were cut at an approximate thickness of 2–4 μm and stained with hematoxylin and eosin (HE) according to AnaPath Services GmbH SOP’s. The slides were checked under the microscope for a quality check before examination under a light microscope by the study pathologist.

[4] = 10, 45, or 200 mg/kg BID PO, 8 days

Question: What does the source list for CCn1c(=O)[nH]c(=O)c2c1nc(Cc1cn3cc(C)sc3n1)n2CC1COC1 [TPT-004]?
Answer: ALT (GPT) (Sprague–Dawley rats [1]; 10 mg/kg PO BID): 49 U/L; Albumin (Sprague–Dawley rats [1]; 10 mg/kg PO BID): 31 g/L; Albumin/ globulin ratio (Sprague–Dawley rats [1]; 10 mg/kg PO BID): 1.33; Alkaline phosphatase (Sprague–Dawley rats [1]; 10 mg/kg PO BID): 402 U/L; Bile acids (Sprague–Dawley rats [1]; 10 mg/kg PO BID): 6.3 µmol/L; Bilirubin total (Sprague–Dawley rats [1]; 10 mg/kg PO BID): 1.7 µmol/L; Calcium (Sprague–Dawley rats [1]; 10 mg/kg PO BID): 2.6 mmol/L; Chloride (Sprague–Dawley rats [1]; 10 mg/kg PO BID): 101 mmol/L; Cholesterol (Sprague–Dawley rats [1]; 10 mg/kg PO BID): 2.25 mmol/L; Creatine kinase (Sprague–Dawley rats [1]; 10 mg/kg PO BID): 406 U/L; Creatinine (Sprague–Dawley rats [1]; 10 mg/kg PO BID): 24 µmol/L; GLDH (Sprague–Dawley rats [1]; 10 mg/kg PO BID): 7 U/L; Globulin (Sprague–Dawley rats [1]; 10 mg/kg PO BID): 23 g/L; Glucose (Sprague–Dawley rats [1]; 10 mg/kg PO BID): 11.2 mmol/L; Inorganic phosphate (Sprague–Dawley rats [1]; 10 mg/kg PO BID): 2.3 mmol/L; Potassium (Sprague–Dawley rats [1]; 10 mg/kg PO BID): 4.7 mmol/L; Sodium (Sprague–Dawley rats [1]; 10 mg/kg PO BID): 143 mmol/L; Total protein (Sprague–Dawley rats [1]; 10 mg/kg PO BID): 54 g/L; Triglycerides (Sprague–Dawley rats [1]; 10 mg/kg PO BID): 1.2 mmol/L; Urea (BUN) (Sprague–Dawley rats [1]; 10 mg/kg PO BID): 6.4 mmol/L; ALT (GPT) (Sprague–Dawley rats [1]; 45 mg/kg PO BID): 52 U/L; Albumin (Sprague–Dawley rats [1]; 45 mg/kg PO BID): 30 g/L; Albumin/ globulin ratio (Sprague–Dawley rats [1]; 45 mg/kg PO BID): 1.34; Alkaline phosphatase (Sprague–Dawley rats [1]; 45 mg/kg PO BID): 434 U/L; Bile acids (Sprague–Dawley rats [1]; 45 mg/kg PO BID): 16.6 µmol/L; Bilirubin total (Sprague–Dawley rats [1]; 45 mg/kg PO BID): 1.7 µmol/L; Calcium (Sprague–Dawley rats [1]; 45 mg/kg PO BID): 2.7 mmol/L; Chloride (Sprague–Dawley rats [1]; 45 mg/kg PO BID): 101 mmol/L; Cholesterol (Sprague–Dawley rats [1]; 45 mg/kg PO BID): 2.5 mmol/L; Creatine kinase (Sprague–Dawley rats [1]; 45 mg/kg PO BID): 415 U/L; Creatinine (Sprague–Dawley rats [1]; 45 mg/kg PO BID): 26 µmol/L; GLDH (Sprague–Dawley rats [1]; 45 mg/kg PO BID): 6 U/L; Globulin (Sprague–Dawley rats [1]; 45 mg/kg PO BID): 23 g/L; Glucose (Sprague–Dawley rats [1]; 45 mg/kg PO BID): 12.3 mmol/L; Inorganic phosphate (Sprague–Dawley rats [1]; 45 mg/kg PO BID): 2.4 mmol/L; Potassium (Sprague–Dawley rats [1]; 45 mg/kg PO BID): 4.7 mmol/L; Sodium (Sprague–Dawley rats [1]; 45 mg/kg PO BID): 142 mmol/L; Total protein (Sprague–Dawley rats [1]; 45 mg/kg PO BID): 53 g/L; Triglycerides (Sprague–Dawley rats [1]; 45 mg/kg PO BID): 1.7 mmol/L; Urea (BUN) (Sprague–Dawley rats [1]; 45 mg/kg PO BID): 6.0 mmol/L; ALT (GPT) (Sprague–Dawley rats [1]; 200 mg/kg PO BID): 67 U/L; Albumin (Sprague–Dawley rats [1]; 200 mg/kg PO BID): 30 g/L; Albumin/ globulin ratio (Sprague–Dawley rats [1]; 200 mg/kg PO BID): 1.32; Alkaline phosphatase (Sprague–Dawley rats [1]; 200 mg/kg PO BID): 313 U/L; Bile acids (Sprague–Dawley rats [1]; 200 mg/kg PO BID): 20.4 µmol/L; Bilirubin total (Sprague–Dawley rats [1]; 200 mg/kg PO BID): 1.7 µmol/L; Calcium (Sprague–Dawley rats [1]; 200 mg/kg PO BID): 2.6 mmol/L; Chloride (Sprague–Dawley rats [1]; 200 mg/kg PO BID): 101 mmol/L; Cholesterol (Sprague–Dawley rats [1]; 200 mg/kg PO BID): 2.6 mmol/L; Creatine kinase (Sprague–Dawley rats [1]; 200 mg/kg PO BID): 321 U/L; Creatinine (Sprague–Dawley rats [1]; 200 mg/kg PO BID): 24 µmol/L; GLDH (Sprague–Dawley rats [1]; 200 mg/kg PO BID): 7 U/L; Globulin (Sprague–Dawley rats [1]; 200 mg/kg PO BID): 23 g/L; Glucose (Sprague–Dawley rats [1]; 200 mg/kg PO BID): 13.5 mmol/L; Inorganic phosphate (Sprague–Dawley rats [1]; 200 mg/kg PO BID): 2.4 mmol/L; Potassium (Sprague–Dawley rats [1]; 200 mg/kg PO BID): 4.9 mmol/L; Sodium (Sprague–Dawley rats [1]; 200 mg/kg PO BID): 143 mmol/L; Total protein (Sprague–Dawley rats [1]; 200 mg/kg PO BID): 53 g/L; Triglycerides (Sprague–Dawley rats [1]; 200 mg/kg PO BID): 1.4 mmol/L; Urea (BUN) (Sprague–Dawley rats [1]; 200 mg/kg PO BID): 7.0 mmol/L; clinical chemistry parameters, overall (Sprague–Dawley rats [1]; [4]): no relevant difference; ERY (Sprague–Dawley rats [2]; 10 mg/kg PO BID): 8.15e+12 L⁻¹; HCT (Sprague–Dawley rats [2]; 10 mg/kg PO BID): 49.64%; HGB (Sprague–Dawley rats [2]; 10 mg/kg PO BID): 13.9 g/dL; LEU (Sprague–Dawley rats [2]; 10 mg/kg PO BID): 1.308e+10 L⁻¹; LYM (Sprague–Dawley rats [2]; 10 mg/kg PO BID): 1.091e+10 L⁻¹; LYM (%) (Sprague–Dawley rats [2]; 10 mg/kg PO BID): 82.8%; MCH (Sprague–Dawley rats [2]; 10 mg/kg PO BID): 17.1 pg; MCHC (Sprague–Dawley rats [2]; 10 mg/kg PO BID): 28.0 g/dL; MCV (Sprague–Dawley rats [2]; 10 mg/kg PO BID): 61 fL; MON (Sprague–Dawley rats [2]; 10 mg/kg PO BID): 5.8e+08 L⁻¹; MON (%) (Sprague–Dawley rats [2]; 10 mg/kg PO BID): 4.0%; MPV (Sprague–Dawley rats [2]; 10 mg/kg PO BID): 8.2 fL; NEU (Sprague–Dawley rats [2]; 10 mg/kg PO BID): 1.59e+09 L⁻¹; NEU (%) (Sprague–Dawley rats [2]; 10 mg/kg PO BID): 13.3%; PCT (Sprague–Dawley rats [2]; 10 mg/kg PO BID): 0.15%; PDWc (Sprague–Dawley rats [2]; 10 mg/kg PO BID): 33.7%; PDWs (Sprague–Dawley rats [2]; 10 mg/kg PO BID): 12.3 fL; PLT (Sprague–Dawley rats [2]; 10 mg/kg PO BID): 1.69e+11 L⁻¹; RDWc (Sprague–Dawley rats [2]; 10 mg/kg PO BID): 16.4%; RDWs (Sprague–Dawley rats [2]; 10 mg/kg PO BID): 37.6 fL; ERY (Sprague–Dawley rats [2]; 45 mg/kg PO BID): 8.12e+12 L⁻¹; HCT (Sprague–Dawley rats [2]; 45 mg/kg PO BID): 48.67%; HGB (Sprague–Dawley rats [2]; 45 mg/kg PO BID): 14.0 g/dL; LEU (Sprague–Dawley rats [2]; 45 mg/kg PO BID): 1.748e+10 L⁻¹; LYM (Sprague–Dawley rats [2]; 45 mg/kg PO BID): 1.446e+10 L⁻¹; LYM (%) (Sprague–Dawley rats [2]; 45 mg/kg PO BID): 82.7%; MCH (Sprague–Dawley rats [2]; 45 mg/kg PO BID): 17.3 pg; MCHC (Sprague–Dawley rats [2]; 45 mg/kg PO BID): 28.8 g/dL; MCV (Sprague–Dawley rats [2]; 45 mg/kg PO BID): 60 fL; MON (Sprague–Dawley rats [2]; 45 mg/kg PO BID): 1.07e+09 L⁻¹; MON (%) (Sprague–Dawley rats [2]; 45 mg/kg PO BID): 6.2%; MPV (Sprague–Dawley rats [2]; 45 mg/kg PO BID): 8.3 fL; NEU (Sprague–Dawley rats [2]; 45 mg/kg PO BID): 1.95e+09 L⁻¹; NEU (%) (Sprague–Dawley rats [2]; 45 mg/kg PO BID): 11.1%; PCT (Sprague–Dawley rats [2]; 45 mg/kg PO BID): 0.08%; PDWc (Sprague–Dawley rats [2]; 45 mg/kg PO BID): 36.1%; PDWs (Sprague–Dawley rats [2]; 45 mg/kg PO BID): 13.9 fL; PLT (Sprague–Dawley rats [2]; 45 mg/kg PO BID): 1.04e+11 L⁻¹; RDWc (Sprague–Dawley rats [2]; 45 mg/kg PO BID): 17.2%; RDWs (Sprague–Dawley rats [2]; 45 mg/kg PO BID): 38.7 fL; red cell distribution width (RDW) (Sprague–Dawley rats [2]; 200 mg/kg BID, vehicle 16.4 ± 0.8, p = 0.0109): 19.3 ± 1.6; ERY (Sprague–Dawley rats [2]; 200 mg/kg PO BID): 8.03e+12 L⁻¹; HCT (Sprague–Dawley rats [2]; 200 mg/kg PO BID): 45.70%; HGB (Sprague–Dawley rats [2]; 200 mg/kg PO BID): 13.1 g/dL; LEU (Sprague–Dawley rats [2]; 200 mg/kg PO BID): 1.534e+10 L⁻¹; LYM (Sprague–Dawley rats [2]; 200 mg/kg PO BID): 1.263e+10 L⁻¹; LYM (%) (Sprague–Dawley rats [2]; 200 mg/kg PO BID): 82.9%; MCH (Sprague–Dawley rats [2]; 200 mg/kg PO BID): 16.4 pg; MCHC (Sprague–Dawley rats [2]; 200 mg/kg PO BID): 28.7 g/dL; MCV (Sprague–Dawley rats [2]; 200 mg/kg PO BID): 57 fL; MON (Sprague–Dawley rats [2]; 200 mg/kg PO BID): 7.4e+08 L⁻¹; MON (%) (Sprague–Dawley rats [2]; 200 mg/kg PO BID): 4.8%; MPV (Sprague–Dawley rats [2]; 200 mg/kg PO BID): 8.3 fL; NEU (Sprague–Dawley rats [2]; 200 mg/kg PO BID): 1.97e+09 L⁻¹; NEU (%) (Sprague–Dawley rats [2]; 200 mg/kg PO BID): 12.3%; PCT (Sprague–Dawley rats [2]; 200 mg/kg PO BID): 0.14%; PDWc (Sprague–Dawley rats [2]; 200 mg/kg PO BID): 35.8%; PDWs (Sprague–Dawley rats [2]; 200 mg/kg PO BID): 13.7 fL; PLT (Sprague–Dawley rats [2]; 200 mg/kg PO BID): 1.79e+11 L⁻¹; RDWc (Sprague–Dawley rats [2]; 200 mg/kg PO BID): 19.3%; RDWs (Sprague–Dawley rats [2]; 200 mg/kg PO BID): 40.8 fL; hematology parameters, overall (Sprague–Dawley rats [2]; [4]): did not alter the hematology parameters; number of platelets (PLT), differences to control (Sprague–Dawley rats [2]; [4]): these differences were not significant; histopathological findings in heart, spleen, kidney, lung, brain, femur, testis, or ovary (Sprague–Dawley rats [3]; 45 and 200 mg/kg BID): no test-related findings; histopathological finding in the liver (Sprague–Dawley rats [3]; only at doses ≥45 mg/kg BID): multifocal, minimal centrilobular hypertrophy
